Test results from patent US9695155B2, “Herbicidal substituted pyrimidinyloxy benzene compounds” (E. I. DU PONT DE NEMOURS AND COMPANY, priority 2013, dated 2017).

Legend:
[1] = tested on: ducksalad; experiment: Test C flooded paddy test; assay type: in vivo, Heteranthera limosa; conditions: Flood, scale 0 to 100 (0 no effect, 100 complete control), 13 to 15 days
Summary of the method: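 Test compounds are applied straight into paddy water held 3 cm above the soil surface, with that flood maintained for the whole test. After 13 to 15 days in the greenhouse, each species is scored visually relative to controls.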

[2] = tested on: lambsquarters; experiment: Test E preemergence; assay type: in vivo, Chenopodium album; conditions: for Lambsquarters plant response rating: scale 0 to 100 (0 no effect, 100 complete control)
Summary of the method: (§1)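 Compound in a non-phytotoxic solvent mixture with surfactant was applied preemergence to seeds in silt loam soil, or postemergence to plants 2 to 18 cm tall grown in peat-based potting medium. Plants were kept in a greenhouse for 14 to 21 days, then rated visually against untreated controls on a 0 (no effect) to 100 (complete control) scale.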

[3] = tested on: palmer pigweed; experiment: Test E preemergence; assay type: in vivo, Amaranthus palmeri; conditions: for Pigweed, Palmer plant response rating: scale 0 to 100 (0 no effect, 100 complete control)
Summary of the method: as §1

[4] = tested on: waterhemp; experiment: Test E preemergence; assay type: in vivo, Amaranthus rudis; conditions: for Waterhemp plant response rating: scale 0 to 100 (0 no effect, 100 complete control)
Summary of the method: as §1

[5] = tested on: large (Lg) crabgrass; experiment: Test E preemergence; assay type: in vivo, Digitaria sanguinalis; conditions: for Crabgrass, Large plant response rating: scale 0 to 100 (0 no effect, 100 complete control)
Source text: Seeds of plant species selected from corn (Zea mays), soybean (Glycine max), velvetleaf (Abutilon theophrasti), lambsquarters (Chenopodium album), wild poinsettia (Euphorbia heterophylla), palmer pigweed (Amaranthus palmeri), waterhemp (common waterhemp, Amaranthus rudis), surinam grass (Brachiaria decumbens), large (Lg) crabgrass (Digitaria sanguinalis), Brazilian crabgrass (Digitaria horizontalis), fall panicum (Panicum dichotomiflorum), giant foxtail (Setaria faberii), green foxtail (Setaria viridis), goosegrass (Eleusine indica), johnsongrass (Sorghum halepense), ragweed (common ragweed, Ambrosia elatior), barnyardgrass (Echinochloa crus-galli), sandbur (southern sandbur, Cenchrus echinatus), arrowleaf sida (Sida rhombifolia), Italian ryegrass (Lolium multiflorum), dayflower (Virginia (VA) dayflower, Commelina virginica), field bindweed (Convolvulus arvensis), morningglory (Ipomoea coccinea), nightshade (eastern black nightshade, Solanum ptycanthum), kochia (Kochia scoparia), yellow nutsedge (Cyperus esculentus), cocklebur (common cocklebur, Xanthium strumarium), smartweed (ladysthumb smartweed, and hairy beggarticks (Bidens pilosa), were planted into a silt loam soil and treated preemergence with test chemicals formulated in a non-phytotoxic solvent mixture which included a surfactant.
At the same time, plants from these crop and weed species and also horseweed (Canada horseweed, Conyza canadensis), waterhemp_RES1, (ALS & Triazine resistant common waterhemp, Amaranthus rudis), and waterhemp_RES2, (ALS & HPPD resistant common waterhemp, Amaranthus rudis) were planted in pots containing Redi-Earth® planting medium (Scotts Company, 14111 Scottslawn Road, Marysville, Ohio 43041) comprising spaghnum peat moss, vermiculite, wetting agent and starter nutrients were treated with postemergence applications of test chemicals formulated in the same manner. Plants ranged in height from 2 to 18 cm for postemergence treatments (1- to 4-leaf stage). Treated plants and controls were maintained in a greenhouse for 14 to 21 days, after which time all species were compared to controls and visually evaluated. Plant response ratings, summarized in Table E, are based on a scale of 0 to 100 where 0 is no effect and 100 is complete control. A dash (-) response means no test result.

[6] = tested on: Brazilian crabgrass; experiment: Test E preemergence; assay type: in vivo, Digitaria horizontalis; conditions: for Crabgrass, Brazil plant response rating: scale 0 to 100 (0 no effect, 100 complete control)
Summary of the method: as §1

[7] = tested on: Italian ryegrass; experiment: Test E preemergence; assay type: in vivo, Lolium multiflorum; conditions: for Ryegrass, Italian plant response rating: scale 0 to 100 (0 no effect, 100 complete control)
Summary of the method: as §1

[8] = tested on: morningglory; experiment: Test E preemergence; assay type: in vivo, Ipomoea coccinea; conditions: for Morningglory plant response rating: scale 0 to 100 (0 no effect, 100 complete control)
Summary of the method: as §1

[9] = tested on: kochia; experiment: Test E preemergence; assay type: in vivo, Kochia scoparia; conditions: for Kochia plant response rating: scale 0 to 100 (0 no effect, 100 complete control)
Summary of the method: as §1

[10] = 125 g ai/ha, scale 0 to 100, 0 no effect, 100 complete control
[11] = 8 g ai/ha, scale 0 to 100, 0 is no effect, 100 is complete control

Compound	Lambsquarters plant response rating ([2]; 31 g ai/ha)	Lambsquarters plant response rating ([2]; 62 g ai/ha)	Plant response rating, Lambsquarters [2, 10]	Pigweed, Palmer plant response rating ([3]; 31 g ai/ha)	Pigweed, Palmer plant response rating ([3]; 62 g ai/ha)	Plant response rating, Pigweed, Palmer [3, 10]	Waterhemp plant response rating ([4]; 31 g ai/ha)	Waterhemp plant response rating ([4]; 62 g ai/ha)	Plant response rating, Waterhemp [4, 10]	Crabgrass, Large plant response rating ([5]; 16 g ai/ha)	Crabgrass, Large plant response rating ([5]; 31 g ai/ha)	Crabgrass, Large plant response rating ([5]; 62 g ai/ha)	Plant response rating, Crabgrass, Large [5, 10]	Crabgrass, Brazil plant response rating ([6]; 16 g ai/ha)	Crabgrass, Brazil plant response rating ([6]; 31 g ai/ha)	Crabgrass, Brazil plant response rating ([6]; 62 g ai/ha)	Plant response rating, Crabgrass, Brazil [6, 10]	Ryegrass, Italian plant response rating ([7]; 31 g ai/ha)	Ryegrass, Italian plant response rating ([7]; 62 g ai/ha)	Plant response rating, Ryegrass, Italian [7, 10]	other results
Fc1cnc(Oc2cccc(C(F)F)c2-n2cc(C(F)(F)F)cn2)nc1 [Compound 164]	75	98	100	0	75	80	65	90	90	35	35	75	100	0	20	75	100	0	30	60	Plant response rating, Ducksalad ([1]; 31 g ai/ha): 0; Plant response rating, Ducksalad ([1]; 62 g ai/ha): 0; Plant response rating, Ducksalad ([1]; 125 g ai/ha): 75; Plant response rating, Ducksalad ([1]; 250 g ai/ha): 95; Morningglory plant response rating ([8]; 31 g ai/ha): 65; Morningglory plant response rating ([8]; 62 g ai/ha): 35; Plant response rating, Morningglory [8, 10]: 98; Kochia plant response rating ([9]; 31 g ai/ha): 0; Kochia plant response rating ([9]; 62 g ai/ha): 75; Plant response rating, Kochia [9, 10]: 100
NC(=S)c1cccc(Oc2ncc(Cl)cn2)c1-n1cc(Cl)cn1 [Compound 292]	0	25	100	35	100	100	20	80	100	0	20	90	100	10	40	100	100	0	0	35	Plant response rating, Lambsquarters [2, 11]: 0; Plant response rating, Pigweed, Palmer [3, 11]: 0; Plant response rating, Waterhemp [4, 11]: 0; Plant response rating, Crabgrass, Large [5, 11]: 0; Plant response rating, Crabgrass, Brazil [6, 11]: 0; Plant response rating, Ryegrass, Italian [7, 11]: 0; Plant response rating, Morningglory [8, 11]: 0; Morningglory plant response rating ([8]; 31 g ai/ha): 0; Morningglory plant response rating ([8]; 62 g ai/ha): 15; Plant response rating, Morningglory [8, 10]: 50; Plant response rating, Kochia [9, 11]: 0; Kochia plant response rating ([9]; 31 g ai/ha): 0; Kochia plant response rating ([9]; 62 g ai/ha): 70; Plant response rating, Kochia [9, 10]: 98
FC(F)c1cccc(Oc2ncc(Cl)cn2)c1-n1cc(C(F)(F)F)cn1 [Compound 170]	98	100	100	95	100	100	80	90	80	0	70	98	100	40	100	100	100	20	35	70	Plant response rating, Lambsquarters [2, 11]: 0; Plant response rating, Pigweed, Palmer [3, 11]: 0; Plant response rating, Waterhemp [4, 11]: 0; Plant response rating, Crabgrass, Large [5, 11]: 0; Plant response rating, Crabgrass, Brazil [6, 11]: 30; Plant response rating, Ryegrass, Italian [7, 11]: 0; Plant response rating, Morningglory [8, 11]: 0; Morningglory plant response rating ([8]; 31 g ai/ha): 10; Morningglory plant response rating ([8]; 62 g ai/ha): 35; Plant response rating, Morningglory [8, 10]: 95; Plant response rating, Kochia [9, 11]: 0; Kochia plant response rating ([9]; 31 g ai/ha): 30; Kochia plant response rating ([9]; 62 g ai/ha): 90; Plant response rating, Kochia [9, 10]: 98
